Species on record: Rattus norvegicus
Assay: Open TG-GATES - Regimen: Daily Repeat
Assay type: toxicity, organism-based, Sprague-Dawley
Set-up: regimen Daily Repeat, gender Male, age 6 weeks
Conditions: in vivo, po, 0 mg/kg, route gavage, dose level Control; for APTT / Bas / Eos / Fbg / Hb / Ht / Lym / MCH / MCHC / MCV / Mono / Neu / PT / Plat / RBC / Ret / WBC: tissue Blood; for KIDNEY_L / KIDNEY_R / KIDNEY_TOTAL: tissue Kidney; for LIVER: tissue Liver; for A/G / ALP / ALT / AST / BUN / CRE / Ca / Cl / DBIL / GLC / IP / K / LDH / Na / PL / RALB / TBIL / TC / TG / TP / gamma-GTP: tissue Plasma

O=C(OC[C@H]1O[C@@H](OC(=O)c2cc(O)c(O)c(OC(=O)c3cc(O)c(O)c(O)c3)c2)[C@H](OC(=O)c2cc(O)c(O)c(OC(=O)c3cc(O)c(O)c(O)c3)c2)[C@@H](OC(=O)c2cc(O)c(O)c(OC(=O)c3cc(O)c(O)c(O)c3)c2)[C@@H]1OC(=O)c1cc(O)c(O)c(OC(=O)c2cc(O)c(O)c(O)c2)c1)c1cc(O)c(O)c(OC(=O)c2cc(O)c(O)c(O)c2)c1 [TANNIC ACID]
TERMINAL_BW (72 h, time 3 day): 216 g | APTT (72 h, time 3 day): 17.1 s | Bas (72 h, time 3 day): 0% | Eos (72 h, time 3 day): 1% | Fbg (72 h, time 3 day): 245.4 mg/dL | Hb (72 h, time 3 day): 13.2 g/dL | Ht (72 h, time 3 day): 39.3% | Lym (72 h, time 3 day): 77.6% | MCH (72 h, time 3 day): 21.8 pg | MCHC (72 h, time 3 day): 33.4% | MCV (72 h, time 3 day): 65.2 fL | Mono (72 h, time 3 day): 6.4% | Neu (72 h, time 3 day): 15% | PT (72 h, time 3 day): 11.7 s | Plat (72 h, time 3 day): 118.4 x10_4/uL | RBC (72 h, time 3 day): 603.8 x10_4/ul | Ret (72 h, time 3 day): 8.3% | WBC (72 h, time 3 day): 101.4 x10_2/uL | KIDNEY_L (72 h, time 3 day): 0.9 g | KIDNEY_R (72 h, time 3 day): 1 g | KIDNEY_TOTAL (72 h, time 3 day): 1.9 g | LIVER (72 h, time 3 day): 10.5 g | A/G (72 h, time 3 day): 2.1 | ALP (72 h, time 3 day): 883.4 IU/L | ALT (72 h, time 3 day): 36.2 IU/L | AST (72 h, time 3 day): 62.2 IU/L | BUN (72 h, time 3 day): 18 mg/dL | CRE (72 h, time 3 day): 0.5 mg/dL | Ca (72 h, time 3 day): 10.9 mg/dL | Cl (72 h, time 3 day): 104.2 meq/L | DBIL (72 h, time 3 day): 0 mg/dL | GLC (72 h, time 3 day): 202 mg/dL | IP (72 h, time 3 day): 8 mg/dL | K (72 h, time 3 day): 4.8 meq/L | LDH (72 h, time 3 day): 62.4 IU/L | Na (72 h, time 3 day): 139.6 meq/L | PL (72 h, time 3 day): 146.8 mg/dL | RALB (72 h, time 3 day): 3.8 g/dL | TBIL (72 h, time 3 day): 0.3 mg/dL | TC (72 h, time 3 day): 75.2 mg/dL | TG (72 h, time 3 day): 112.8 mg/dL | TP (72 h, time 3 day): 5.7 g/dL | gamma-GTP (72 h, time 3 day): 1 IU/L | TERMINAL_BW ([…], time 7 day): 253.1 g | TERMINAL_BW ([…], time 14 day): 306.2 g | TERMINAL_BW ([…], time 28 day): 398.3 g | APTT ([…], time 7 day): 16.7 s | Bas ([…], time 7 day): 0% | Eos ([…], time 7 day): 1% | Fbg ([…], time 7 day): 219.4 mg/dL | Hb ([…], time 7 day): 12.8 g/dL | Ht ([…], time 7 day): 38.2% | Lym ([…], time 7 day): 77.8% | MCH ([…], time 7 day): 21.4 pg | MCHC ([…], time 7 day): 33.5% | MCV ([…], time 7 day): 63.9 fL | Mono ([…], time 7 day): 6.8% | Neu ([…], time 7 day): 14.4% | PT ([…], time 7 day): 11.1 s | Plat ([…], time 7 day): 101 x10_4/uL | RBC ([…], time 7 day): 598 x10_4/ul | Ret ([…], time 7 day): 6.8% | WBC ([…], time 7 day): 131.8 x10_2/uL | APTT ([…], time 14 day): 16 s | Bas ([…], time 14 day): 0% | Eos ([…], time 14 day): 1.2% | Fbg ([…], time 14 day): 251.8 mg/dL | Hb ([…], time 14 day): 13.9 g/dL | Ht ([…], time 14 day): 41.6% | Lym ([…], time 14 day): 78% | MCH ([…], time 14 day): 20.7 pg | MCHC ([…], time 14 day): 33.4% | MCV ([…], time 14 day): 62.1 fL | Mono ([…], time 14 day): 7% | Neu ([…], time 14 day): 14% | PT ([…], time 14 day): 11.5 s | Plat ([…], time 14 day): 125.4 x10_4/uL | RBC ([…], time 14 day): 669.8 x10_4/ul | Ret ([…], time 14 day): 5.3% | WBC ([…], time 14 day): 128.6 x10_2/uL | APTT ([…], time 28 day): 17.3 s | Bas ([…], time 28 day): 0% | Eos ([…], time 28 day): 1% | Fbg ([…], time 28 day): 229 mg/dL | Hb ([…], time 28 day): 14.7 g/dL | Ht ([…], time 28 day): 43.6% | Lym ([…], time 28 day): 84% | MCH ([…], time 28 day): 19.9 pg | MCHC ([…], time 28 day): 33.7% | MCV ([…], time 28 day): 59.2 fL | Mono ([…], time 28 day): 5.2% | Neu ([…], time 28 day): 9.8% | PT ([…], time 28 day): 11.8 s | Plat ([…], time 28 day): 112.4 x10_4/uL | RBC ([…], time 28 day): 738.4 x10_4/ul | Ret ([…], time 28 day): 2.8% | WBC ([…], time 28 day): 144.2 x10_2/uL | KIDNEY_L ([…], time 7 day): 1.1 g | KIDNEY_R ([…], time 7 day): 1.1 g | KIDNEY_TOTAL ([…], time 7 day): 2.2 g | KIDNEY_L ([…], time 14 day): 1.2 g | KIDNEY_R ([…], time 14 day): 1.2 g | KIDNEY_TOTAL ([…], time 14 day): 2.4 g | KIDNEY_L ([…], time 28 day): 1.4 g | KIDNEY_R ([…], time 28 day): 1.4 g | KIDNEY_TOTAL ([…], time 28 day): 2.7 g | LIVER ([…], time 7 day): 12.3 g | LIVER ([…], time 14 day): 14.2 g | LIVER ([…], time 28 day): 17.9 g | A/G ([…], time 7 day): 1.7 | ALP ([…], time 7 day): 813.4 IU/L | ALT ([…], time 7 day): 34.4 IU/L | AST ([…], time 7 day): 60.6 IU/L | BUN ([…], time 7 day): 19 mg/dL | CRE ([…], time 7 day): 0.4 mg/dL | Ca ([…], time 7 day): 10.8 mg/dL | Cl ([…], time 7 day): 103.2 meq/L | DBIL ([…], time 7 day): 0.006 mg/dL | GLC ([…], time 7 day): 205.2 mg/dL | IP ([…], time 7 day): 8.1 mg/dL | K ([…], time 7 day): 4.4 meq/L | LDH ([…], time 7 day): 57 IU/L | Na ([…], time 7 day): 137.8 meq/L | PL ([…], time 7 day): 160.2 mg/dL | RALB ([…], time 7 day): 3.6 g/dL | TBIL ([…], time 7 day): 0.4 mg/dL | TC ([…], time 7 day): 85.4 mg/dL | TG ([…], time 7 day): 119.6 mg/dL | TP ([…], time 7 day): 5.7 g/dL | gamma-GTP ([…], time 7 day): 1 IU/L | A/G ([…], time 14 day): 1.8 | ALP ([…], time 14 day): 806.2 IU/L | ALT ([…], time 14 day): 31.2 IU/L | AST ([…], time 14 day): 58.8 IU/L | BUN ([…], time 14 day): 18.4 mg/dL | CRE ([…], time 14 day): 0.6 mg/dL | Ca ([…], time 14 day): 10.7 mg/dL | Cl ([…], time 14 day): 103.8 meq/L | DBIL ([…], time 14 day): 0.018 mg/dL | GLC ([…], time 14 day): 198 mg/dL | IP ([…], time 14 day): 7.8 mg/dL | K ([…], time 14 day): 4.6 meq/L | LDH ([…], time 14 day): 81 IU/L | Na ([…], time 14 day): 139.6 meq/L | PL ([…], time 14 day): 140.2 mg/dL | RALB ([…], time 14 day): 3.8 g/dL | TBIL ([…], time 14 day): 0.3 mg/dL | TC ([…], time 14 day): 70.2 mg/dL | TG ([…], time 14 day): 115.2 mg/dL | TP ([…], time 14 day): 5.9 g/dL | gamma-GTP ([…], time 14 day): 1 IU/L | A/G ([…], time 28 day): 1.8 | ALP ([…], time 28 day): 563.4 IU/L | ALT ([…], time 28 day): 29.4 IU/L | AST ([…], time 28 day): 56.8 IU/L | BUN ([…], time 28 day): 20.4 mg/dL | CRE ([…], time 28 day): 0.6 mg/dL | Ca ([…], time 28 day): 11 mg/dL | Cl ([…], time 28 day): 105.4 meq/L | DBIL ([…], time 28 day): 0.006 mg/dL | GLC ([…], time 28 day): 221.4 mg/dL | IP ([…], time 28 day): 7.1 mg/dL | K ([…], time 28 day): 4.4 meq/L | LDH ([…], time 28 day): 63.6 IU/L | Na ([…], time 28 day): 139.6 meq/L | PL ([…], time 28 day): 152.6 mg/dL | RALB ([…], time 28 day): 3.9 g/dL | TBIL ([…], time 28 day): 0.2 mg/dL | TC ([…], time 28 day): 73.6 mg/dL | TG ([…], time 28 day): 141.4 mg/dL | TP ([…], time 28 day): 6.2 g/dL | gamma-GTP ([…], time 28 day): 0.6 IU/L
